Source: patent US20230159453A1 (COCRYSTAL PHARMA, INC., priority 2020, published 2023)

These molecules were tested against SARS2 protease (Severe acute respiratory syndrome coronavirus 2, UniProt P0DTD1) (assay: SARS-CoV-2 protease inhibition assay (SARS2 FRET protease assay)). Details: SARS-CoV-2 protease 25 nM, FRET, peptide substrate 1.3 μM, 30 minutes at 30° C., compounds 20 μM to 1.0 nM; read-out: IC50.
Type: biochemical

Row | SMILES | IC50
1 | CC(C)C[C@H](NC(=O)OC(Cc1ccccc1)c1ccccc1)C(=O)N[C@@H](C[C@@H]1CCNC1=O)C(O)S(=O)(=O)O (stereo partly drawn) [Compound C53, (2S)-2-((2S)-2-(((1,2-Diphenylethoxy)carbonyl)amino)-4-methylpentanamido)-1-hydroxy-3-((S)-2-oxopyrrolidin-3-yl)propane-1-sulfonate] | 40 nM
2 | CC(=O)N1CCC2(CC1)CC(CC(C=O)NC(=O)[C@H](CC(C)C)NC(=O)OCc1cccc(Cl)c1)C(=O)N2 (stereo partly drawn) [Compound C54, 3-Chlorobenzyl ((2S)-1-((1-(8-acetyl-2-oxo-1,8-diazaspiro[4.5]decan-3-yl)-3-oxopropan-2-yl)amino)-4-methyl-1-oxopentan-2-yl)carbamate] | 100 nM
3 | CC(C)C[C@H](NC(=O)OC1(Cc2ccccc2)CCC1)C(=O)N[C@H](C=O)C[C@@H]1CCNC1=O [Compound C56, 1-benzylcyclobutyl ((S)-4-methyl-1-oxo-1-(((S)-1-oxo-3-((S)-2-oxopyrrolidin-3-yl)propan-2-yl)amino)pentan-2-yl)carbamate] | 600 nM
4 | CC(C)C[C@H](NC(=O)OC(C)(C)Cc1ccccc1)C(=O)N[C@@H](C[C@@H]1CCNC1=O)C(O)S(=O)(=O)O (stereo partly drawn) [Compound C57, (2S)-1-hydroxy-2-((S)-4-methyl-2-((((2-methyl-1-phenylpropan-2-yl)oxy)carbonyl)amino)pentanamido)-3-((S)-2-oxopyrrolidin-3-yl)propane-1-sulfonate] | 800 nM
5 | CC(C)C[C@H](NC(=O)OC1CCN(C(=O)OC(C)(C)C)c2ccccc21)C(=O)N[C@@H](C[C@@H]1CCNC1=O)C(O)S(=O)(=O)O (stereo partly drawn) [Compound C58, (2S)-2-((2S)-2-((((1-(tert-butoxycarbonyl)-1,2,3,4-tetrahydroquinolin-4-yl)oxy)carbonyl)amino)-4-methylpentanamido)-1-hydroxy-3-((S)-2-oxopyrrolidin-3-yl) propane-1-sulfonate] | 100 nM
6 | CC(C)C[C@H](NC(=O)OC1CCN(C(=O)OC(C)(C)C)c2ccccc21)C(=O)N[C@H](C=O)C[C@@H]1CCNC1=O (stereo partly drawn) [Compound C59, Tert-butyl 4-((((S)-4-methyl-1-oxo-1-(((S)-1-oxo-3-((S)-2-oxopyrrolidin-3-yl)propan-2-yl)amino)pentan-2-yl)carbamoyl)oxy)-3,4-dihydroquinoline-1(2H)-carboxylate] | 100 nM
7 | CC(C)C[C@H](NC(=O)OC1(Cc2cccc(OCc3ccccc3)c2)CC1)C(=O)N[C@H](C=O)C[C@@H]1CCNC1=O [Compound C60, 1-(3-(Benzyloxy)benzyl)cyclopropyl ((S)-4-methyl-1-oxo-1-(((S)-1-oxo-3-((S)-2-oxopyrrolidin-3-yl)propan-2-yl)amino)pentan-2-yl)carbamate] | 600 nM
8 | CC(C)C[C@H](NC(=O)OC1(Cc2cccnc2)CC1)C(=O)N[C@@H](C[C@@H]1CCNC1=O)C(O)S(=O)(=O)O (stereo partly drawn) [Compound C62, (2S)-1-Hydroxy-2-((S)-4-methyl-2-(((1-(pyridin-3-ylmethyl)cyclopropoxy)carbonyl)amino)pentanamido)-3-((S)-2-oxopyrrolidin-3-yl)propane-1-sulfonate] | 4600 nM
9 | CC(C)C[C@H](NC(=O)OC1(Cc2ccccc2)CCC1)C(=O)N[C@@H](C[C@@H]1CCNC1=O)C(O)S(=O)(=O)O (stereo partly drawn) [Compound C63, (2S)-2-((S)-2-(((1-Benzylcyclobutoxy)carbonyl)amino)-4-methylpentanamido)-1-hydroxy-3-((S)-2-oxopyrrolidin-3-yl)propane-1-sulfonate] | 1600 nM
10 | CC(=O)N1CCC2(CC1)CC(CC(C=O)NC(=O)[C@H](CC(C)C)NC(=O)OCC1CCC(F)(F)CC1)C(=O)N2 (stereo partly drawn) [Compound C64, (4,4-Difluorocyclohexyl)methyl ((2S)-1-((1-(8-acetyl-2-oxo-1,8-diazaspiro[4.5]decan-3-yl)-3-oxopropan-2-yl)amino)-4-methyl-1-oxopentan-2-yl)carbamate] | 100 nM
11 | CCCCCOC(=O)N[C@@H](CC(C)C)C(=O)NC(C)(C=O)CC1CCNC1=O (stereo partly drawn) [Compound C65, Pentyl ((2S)-4-methyl-1-((2-methyl-1-oxo-3-(2-oxopyrrolidin-3-yl)propan-2-yl)amino)-1-oxopentan-2-yl) carbamate] | 26900 nM
12 | CC(C)C[C@H](NC(=O)OCc1cccc(Cl)c1)C(=O)NC(C=O)CC1CC2(CCCCC2)NC1=O (stereo partly drawn) [Compound C66, 3-Chlorobenzyl ((2S)-4-methyl-1-oxo-1-((1-oxo-3-(2-oxo-1-azaspiro[4.5]decan-3-yl)propan-2-yl)amino)pentan-2-yl)carbamate] | 100 nM
13 | CC(=O)N1CCC2(CC1)CC(CC(C=O)NC(=O)[C@H](Cc1cccc(F)c1)NC(=O)OCc1cccc(Cl)c1)C(=O)N2 (stereo partly drawn) [Compound C67, 3-Chlorobenzyl ((2S)-1-((1-(8-acetyl-2-oxo-1,8-diazaspiro[4.5]decan-3-yl)-3-oxopropan-2-yl)amino)-3-(3-fluorophenyl)-1-oxopropan-2-yl)carbamate] | 300 nM
14 | CC(C)C[C@H](NC(=O)OC(Cc1ccccc1)c1ccccc1)C(=O)N[C@@H](C[C@@H]1CCNC1=O)C(=O)C(=O)NCc1ccccn1 (stereo partly drawn) [Compound C68, 1,2-Diphenylethyl ((S)-1-(((S)-3,4-dioxo-1-((S)-2-oxopyrrolidin-3-yl)-4-((pyridin-2-ylmethyl)amino)butan-2-yl)amino)-4-methyl-1-oxopentan-2-yl)carbamate] | 2100 nM
15 | CC(=O)N1CCC2(CC1)CC(CC(C=O)NC(=O)[C@H](CC(C)C)NC(=O)OCC(C)(C)c1cccc(Cl)c1)C(=O)N2 (stereo partly drawn) [Compound C70, 2-(3-Chlorophenyl)-2-methylpropyl ((2S)-1-((1-(8-acetyl-2-oxo-1,8-diazaspiro[4.5]decan-3-yl)-3-oxopropan-2-yl)amino)-4-methyl-1-oxopentan-2-yl)carbamate] | 100 nM
16 | CC(C)C[C@H](NC(=O)OC1(Cc2cccnc2)CC1)C(=O)N[C@H](C=O)C[C@@H]1CCNC1=O [Compound C71, 1-(Pyridin-3-ylmethyl)cyclopropyl ((S)-4-methyl-1-oxo-1-(((S)-1-oxo-3-((S)-2-oxopyrrolidin-3-yl)propan-2-yl)amino)pentan-2-yl)carbamate] | 1600 nM
17 | CC(C)C[C@H](NC(=O)OCC(C)(C)c1cccc(Cl)c1)C(=O)N[C@@H](C[C@@H]1CCNC1=O)C(O)S(=O)(=O)O (stereo partly drawn) [Compound C72, Sodium (2S)-2-((S)-2-(((2-(3-chlorophenyl)-2-methylpropoxy)carbonyl)amino)-4-methylpentanamido)-1-hydroxy-3-((S)-2-oxopyrrolidin-3-yl)propane-1-sulfonate] | 10 nM
18 | CC(C)C[C@H](NC(=O)OC1(Cc2ccccc2)CCC1)C(=O)N[C@@H](C[C@@H]1CCNC1=O)C(=O)C(N)=O [Compound C73, 1-Benzylcyclobutyl ((S)-1-(((S)-4-amino-3,4-dioxo-1-((S)-2-oxopyrrolidin-3-yl)butan-2-yl)amino)-4-methyl-1-oxopentan-2-yl)carbamate] | 600 nM
19 | CC(=O)N1CCC2(CC1)CC(CC(C=O)NC(=O)[C@H](CC(C)C)NC(=O)c1cc3ccccc3[nH]1)C(=O)N2 (stereo partly drawn) [Compound C74, N-((2S)-1-((1-(8-acetyl-2-oxo-1,8-diazaspiro[4.5]decan-3-yl)-3-oxopropan-2-yl)amino)-4-methyl-1-oxopentan-2-yl)-1H-indole-2-carboxamide] | 140 nM
